{"source": "patent US11179364B2", "about": "“Licofligozin for the treatment of non-alcoholic steatohepatitis” (NOVARTIS AG, priority 2017, dated 2021)", "key": {"[1]": {"test": "Dog pharmacokinetics, tablet vs solution, crossover", "type": "in vivo", "conditions": "single dose of 50 mg/dog, dogs"}, "[2]": {"test": "In vitro pharmacokinetic drug interaction studies", "type": "in vitro ADME"}, "[3]": {"test": "Single and multiple dose studies in healthy volunteers and T2DM patients", "type": "in vivo, human"}, "[4]": {"test": "Oral toxicity studies in rats"}, "[5]": {"test": "Clinical pharmacokinetics", "conditions": "human, in vivo; read-out: pharmacokinetic elimination half-life"}, "[6]": {"conditions": "rat, in vivo"}, "Permeability": {"test": "Permeability", "type": "in vitro ADME"}, "[7]": {"test": "Oral toxicity studies in dogs", "type": "in vivo"}, "Solubility": {"test": "Solubility", "type": "physicochemical"}, "SGLT1": {"biological_target": "T1, SGLT1 (Homo sapiens, UniProt P13866)", "T1 sequence (P13866 1-664)": "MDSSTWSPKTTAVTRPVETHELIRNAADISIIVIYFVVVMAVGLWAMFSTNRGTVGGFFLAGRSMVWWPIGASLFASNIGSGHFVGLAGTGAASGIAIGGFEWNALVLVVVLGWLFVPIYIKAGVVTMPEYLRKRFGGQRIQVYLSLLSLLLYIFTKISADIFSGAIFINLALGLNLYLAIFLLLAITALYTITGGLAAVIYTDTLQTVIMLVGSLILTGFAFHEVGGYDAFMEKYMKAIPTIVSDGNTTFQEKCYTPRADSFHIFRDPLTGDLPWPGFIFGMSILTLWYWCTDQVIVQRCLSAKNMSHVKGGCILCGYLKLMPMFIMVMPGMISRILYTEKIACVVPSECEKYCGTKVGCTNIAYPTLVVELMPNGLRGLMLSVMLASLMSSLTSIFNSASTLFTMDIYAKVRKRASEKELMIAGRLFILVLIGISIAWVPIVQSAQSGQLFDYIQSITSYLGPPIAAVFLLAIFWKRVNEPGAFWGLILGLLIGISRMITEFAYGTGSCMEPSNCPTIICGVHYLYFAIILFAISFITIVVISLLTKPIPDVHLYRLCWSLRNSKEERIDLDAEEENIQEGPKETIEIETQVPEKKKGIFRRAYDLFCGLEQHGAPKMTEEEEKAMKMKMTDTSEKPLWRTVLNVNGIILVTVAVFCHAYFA", "test": "SGLT1 inhibition", "type": "biochemical"}, "[8]": {"test": "12 week study in obese patients", "type": "in vivo, human"}, "[9]": {"test": "Tissue distribution study in rats", "type": "in vivo"}, "human hepatocytes": {"tested_on": "human hepatocytes", "test": "Clearance pathways in human hepatocytes", "type": "in vitro ADME"}, "P-glycoprotein (P-gp)": {"biological_target": "P-glycoprotein (P-gp) (Homo sapiens, UniProt P08183)", "sequence (P08183 whole entry)": "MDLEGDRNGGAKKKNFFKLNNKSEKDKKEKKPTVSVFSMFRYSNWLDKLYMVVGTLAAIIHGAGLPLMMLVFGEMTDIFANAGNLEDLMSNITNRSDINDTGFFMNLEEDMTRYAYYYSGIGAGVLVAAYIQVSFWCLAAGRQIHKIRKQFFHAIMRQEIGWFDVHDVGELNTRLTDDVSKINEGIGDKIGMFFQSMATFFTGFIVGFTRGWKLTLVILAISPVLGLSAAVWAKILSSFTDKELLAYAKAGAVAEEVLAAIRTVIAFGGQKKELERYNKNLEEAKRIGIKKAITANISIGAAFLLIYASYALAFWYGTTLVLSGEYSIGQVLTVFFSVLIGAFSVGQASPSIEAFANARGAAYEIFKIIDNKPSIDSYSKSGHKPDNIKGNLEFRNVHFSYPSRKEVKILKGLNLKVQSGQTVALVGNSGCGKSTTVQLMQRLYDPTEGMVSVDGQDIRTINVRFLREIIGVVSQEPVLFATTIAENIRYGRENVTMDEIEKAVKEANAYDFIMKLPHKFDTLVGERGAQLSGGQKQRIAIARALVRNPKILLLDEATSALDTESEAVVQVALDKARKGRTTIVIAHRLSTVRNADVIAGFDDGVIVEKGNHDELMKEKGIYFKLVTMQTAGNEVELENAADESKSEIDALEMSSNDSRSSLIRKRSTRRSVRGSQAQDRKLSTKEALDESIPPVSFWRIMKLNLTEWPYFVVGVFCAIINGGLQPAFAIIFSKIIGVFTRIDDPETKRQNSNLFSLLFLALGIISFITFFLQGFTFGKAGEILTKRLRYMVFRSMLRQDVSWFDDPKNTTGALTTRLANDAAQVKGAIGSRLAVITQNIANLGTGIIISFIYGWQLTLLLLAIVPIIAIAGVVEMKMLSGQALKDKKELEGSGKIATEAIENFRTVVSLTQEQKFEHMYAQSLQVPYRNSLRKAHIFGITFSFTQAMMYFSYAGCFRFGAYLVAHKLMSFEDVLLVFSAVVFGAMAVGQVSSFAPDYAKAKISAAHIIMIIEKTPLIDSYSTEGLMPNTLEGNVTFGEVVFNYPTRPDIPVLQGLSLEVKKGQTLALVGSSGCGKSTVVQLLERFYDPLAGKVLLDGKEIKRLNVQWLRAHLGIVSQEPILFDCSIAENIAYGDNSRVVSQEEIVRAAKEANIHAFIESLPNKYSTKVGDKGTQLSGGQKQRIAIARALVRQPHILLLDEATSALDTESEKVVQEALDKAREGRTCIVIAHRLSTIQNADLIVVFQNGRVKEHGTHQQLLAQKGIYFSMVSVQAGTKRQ", "test": "P-glycoprotein substrate assessment", "type": "in vitro ADME"}, "[10]": {"tested_on": "other glucose transporters (GLUTs)", "test": "Selectivity against other glucose transporters", "type": "biochemical"}, "SGLT2": {"biological_target": "T2, SGLT2 (Homo sapiens, UniProt P31639)", "T2 sequence (P31639 1-672)": "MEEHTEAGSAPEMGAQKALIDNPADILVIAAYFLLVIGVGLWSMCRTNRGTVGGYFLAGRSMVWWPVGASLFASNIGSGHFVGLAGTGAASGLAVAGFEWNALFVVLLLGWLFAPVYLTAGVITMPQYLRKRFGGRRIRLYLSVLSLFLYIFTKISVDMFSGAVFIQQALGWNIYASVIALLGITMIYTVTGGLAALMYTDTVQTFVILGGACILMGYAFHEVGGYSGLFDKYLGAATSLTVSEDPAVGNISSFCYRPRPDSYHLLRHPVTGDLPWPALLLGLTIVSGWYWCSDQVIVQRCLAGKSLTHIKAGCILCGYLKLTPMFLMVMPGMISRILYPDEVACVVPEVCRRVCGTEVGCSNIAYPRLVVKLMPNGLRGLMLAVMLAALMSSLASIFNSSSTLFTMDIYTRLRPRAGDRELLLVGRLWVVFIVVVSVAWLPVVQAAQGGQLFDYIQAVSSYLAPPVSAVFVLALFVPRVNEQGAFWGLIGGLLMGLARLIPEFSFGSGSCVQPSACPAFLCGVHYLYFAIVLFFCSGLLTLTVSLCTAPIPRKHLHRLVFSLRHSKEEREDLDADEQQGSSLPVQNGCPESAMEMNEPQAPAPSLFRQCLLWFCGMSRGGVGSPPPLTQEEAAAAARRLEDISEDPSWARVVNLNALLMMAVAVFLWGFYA", "test": "SGLT2 inhibition", "type": "biochemical"}, "[11]": {"test": "Dose/exposure-response analysis from completed clinical studies", "type": "in vivo, human", "protocol": "The primary efficacy endpoint for dose/exposure-response analysis for LIK066, from previously completed clinical studies, was body weight loss, and other pharmacodynamic endpoints such as urinary and plasma glucose. The estimated ED50 and ED90 of LIK066 based on once a day dosing were approximately 5 mg and 50 mg, respectively, based on a body weight loss model. The estimated ED50 and ED90 based on other relevant pharmacodynamics endpoints such as urinary and plasma glucose were approximately 3-10 mg and 30-100 mg, respectively. […] Therefore this dose is tested first, with introduction of the 30 mg dose later to assure futility evaluation prior to enrollment of the entire cohort for the study. […] The diarrhea associated with LIK066 could be mitigated by dietary modification such as reduction in carbohydrate intake. Body weight loss is an important factor in therapeutic development for NASH as weight loss through either bariatric surgery or life style modification deters progression of the disease."}, "hERG": {"biological_target": "hERG (Homo sapiens, UniProt Q12809)", "sequence (Q12809 whole entry)": "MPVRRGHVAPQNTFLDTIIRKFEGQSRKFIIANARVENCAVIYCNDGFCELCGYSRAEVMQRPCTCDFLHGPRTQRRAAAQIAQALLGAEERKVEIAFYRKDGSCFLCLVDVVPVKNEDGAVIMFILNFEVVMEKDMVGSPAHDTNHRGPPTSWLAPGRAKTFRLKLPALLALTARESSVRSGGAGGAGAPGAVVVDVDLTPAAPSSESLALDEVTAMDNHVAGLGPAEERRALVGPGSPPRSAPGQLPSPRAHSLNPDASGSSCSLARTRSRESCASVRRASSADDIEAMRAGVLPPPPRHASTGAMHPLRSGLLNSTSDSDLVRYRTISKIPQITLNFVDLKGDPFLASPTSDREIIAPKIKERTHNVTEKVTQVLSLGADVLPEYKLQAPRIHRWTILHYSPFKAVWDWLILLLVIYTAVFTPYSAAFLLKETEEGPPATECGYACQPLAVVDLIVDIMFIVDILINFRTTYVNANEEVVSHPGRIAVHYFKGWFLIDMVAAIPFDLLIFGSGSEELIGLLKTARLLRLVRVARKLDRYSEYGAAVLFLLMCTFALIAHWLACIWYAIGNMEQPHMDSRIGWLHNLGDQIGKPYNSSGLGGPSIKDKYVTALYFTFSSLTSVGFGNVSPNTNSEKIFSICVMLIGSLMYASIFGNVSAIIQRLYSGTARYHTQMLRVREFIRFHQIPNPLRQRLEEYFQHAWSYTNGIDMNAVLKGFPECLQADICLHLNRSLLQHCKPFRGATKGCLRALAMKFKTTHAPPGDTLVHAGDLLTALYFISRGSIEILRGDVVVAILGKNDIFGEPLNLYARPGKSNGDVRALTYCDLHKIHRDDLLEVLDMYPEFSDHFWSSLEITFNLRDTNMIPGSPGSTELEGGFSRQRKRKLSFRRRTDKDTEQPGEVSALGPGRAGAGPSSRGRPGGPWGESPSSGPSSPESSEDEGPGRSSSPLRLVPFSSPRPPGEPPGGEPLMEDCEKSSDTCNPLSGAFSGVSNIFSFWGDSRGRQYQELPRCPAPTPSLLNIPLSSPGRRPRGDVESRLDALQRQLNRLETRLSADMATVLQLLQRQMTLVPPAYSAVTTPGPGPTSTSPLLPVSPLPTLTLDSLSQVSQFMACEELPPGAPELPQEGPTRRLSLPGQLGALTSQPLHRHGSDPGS", "test": "hERG inhibitory activity", "type": "biochemical", "conditions": "at the maximal soluble concentration (16 μM)"}, "[12]": {"test": "Excretion of [14C] LIK066-related radioactivity in rats", "type": "in vivo"}, "[13]": {"conditions": "once a day dosing, body weight loss model"}, "[14]": {"conditions": "urinary and plasma glucose endpoints"}}, "note": "Where two headings read alike, the source gives them in different places.", "data": [{"compound": "CCc1ccc([C@@H]2O[C@H](CO)[C@@H](O)[C@H](O)[C@H]2O)cc1Cc1ccc2c(c1)OCCO2", "note": "[LIK066, (2S,3R,4R,5S,6R)-2-(3-((2,3-dihydrobenzo[b][1,4]dioxin-6-yl)methyl)-4-ethylphenyl)-6-(hydroxymethyl)tetrahydro-2H-pyran-3,4,5-triol]", "values": [{"measurement": "pharmacokinetics, tablet vs solution formulations", "setting": "[1]", "value": "comparable"}, {"measurement": "potential to act as a perpetrator of pharmacokinetic drug interactions", "setting": "[2]", "value": "low potential"}, {"measurement": "safety and tolerability", "setting": "[3]; healthy volunteers and patients with T2DM", "value": "safe and tolerated"}, {"measurement": "pharmacokinetic profile", "setting": "[3]; human, in vivo", "value": "favorable"}, {"measurement": "placebo-adjusted weight loss", "setting": "[3]; over 2 weeks, healthy subjects and patients with T2DM", "value": "up to 3%"}, {"measurement": "glucose AUC after an oral glucose tolerance test (OGTT)", "setting": "[3]; patients with T2DM", "value": "significantly lowered"}, {"measurement": "glucosuria", "setting": "[3]; single and multiple doses, healthy volunteers and patients with T2DM", "value": "induced glucosuria"}, {"measurement": "principal target organs of toxicity", "setting": "[4]; oral, rats, up to 26-weeks", "value": "gastrointestinal tract, kidney, urinary tract, bone, liver and adrenal glands"}, {"measurement": "NOAEL", "setting": "[4]; rat, in vivo, oral", "value": 5, "unit": "mg/kg/day"}, {"measurement": "body weight gain", "setting": "[4]; rats, at almost all doses", "value": "reduced body weight gain"}, {"measurement": "half-life", "setting": "[5]", "value": "10 to 16", "unit": "h"}, {"measurement": "tolerated dose", "setting": "[6]; 4 weeks", "value": "up to 100 mg/kg"}, {"measurement": "tolerated dose", "setting": "[6]; 26 weeks", "value": "up to 30 mg/kg"}, {"measurement": "permeability", "setting": "Permeability", "value": "good permeability"}, {"measurement": "NOAEL", "setting": "[7]; dog, in vivo, oral, read-out: no observed adverse effect level (NOAEL)", "value": 0.5, "unit": "mg/kg/day"}, {"measurement": "body weight gain", "setting": "[7]; dogs, at almost all doses", "value": "reduced body weight gain"}, {"measurement": "doses not tolerated", "setting": "[7]; dogs, prolonged periods (≥6 weeks), body weight loss, fecal changes and dehydration", "value": "≥ 10", "unit": "mg/kg"}, {"measurement": "principal target organs of toxicity", "setting": "[7]; oral, dogs, up to 13-weeks", "value": "gastrointestinal tract, kidney, urinary tract, bone, liver and adrenal glands"}, {"measurement": "solubility", "setting": "Solubility", "value": "good solubility"}, {"measurement": "inhibition of SGLT1", "setting": "SGLT1", "value": "potent inhibitor"}, {"measurement": "weight loss", "setting": "[8]; 150 mg daily dose (qd, b.i.d or tid), obese patients, 12 week treatment", "value": "~6", "unit": "%"}, {"measurement": "weight loss", "setting": "[8]; 150 mg dose, previous phase 2 study", "value": "significant weight loss"}, {"measurement": "dose-limiting toxicity / primary AE", "setting": "[8]; 150 mg qd, twelve weeks", "value": "diarrhea"}, {"measurement": "safety and tolerability", "setting": "[8]; 150 mg qd, twelve weeks, normoglycemic and dysglycemic subjects / obese patients", "value": "generally safe and well tolerated"}, {"measurement": "distribution to the central nervous system and reproductive organs", "setting": "[9]", "value": "relatively low distribution"}, {"measurement": "predominant clearance pathway", "setting": "human hepatocytes", "value": "Direct glucuronidation (via the UDP-glucuronosyl transferase (UGT1A9))"}, {"measurement": "second clearance pathway (followed by)", "setting": "human hepatocytes", "value": "oxidative metabolism (CYP3A4)"}, {"measurement": "P-glycoprotein (P-gp) substrate", "setting": "P-glycoprotein (P-gp)", "value": "is a substrate"}, {"measurement": "selectivity against other glucose transporters (GLUTs)", "setting": "[10]", "value": "high selectivity"}, {"measurement": "inhibition of SGLT2", "setting": "SGLT2", "value": "potent inhibitor"}, {"measurement": "estimated ED50", "setting": "[11]; [13]", "value": "approximately 5 mg"}, {"measurement": "estimated ED90", "setting": "[11]; [13]", "value": "~50", "unit": "mg"}, {"measurement": "estimated ED50", "setting": "[11]; [14]", "value": "3 to 10", "unit": "mg"}, {"measurement": "estimated ED90", "setting": "[11]; [14]", "value": "30 to 100", "unit": "mg"}, {"measurement": "inhibitory hERG activity", "setting": "hERG", "value": "no significant inhibitory hERG activity"}, {"measurement": "excretion of [14C] LIK066-related radioactivity", "setting": "[12]", "value": "excreted in both urine and feces, mainly as metabolites"}]}]}
